Experimental data taken from PubChem BioAssay (NCI).
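Where inhibition never reached the appropriate level, the endpoint shown equals the highest concentration tested. Otherwise, values were interpolated linearly from a five-concentration, 48-hour dose response in 96-well plates. At the TGI there is no net growth.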

Tests used:
Test in all cases: DTP human tumour cell line panel, 48 h
KM20L2 colon = system: KM20L2 colon
HT29 colon = system: HT29 colon
OVCAR-4 ovarian = system: OVCAR-4 ovarian
SNB-78 CNS = system: SNB-78 CNS
LOX IMVI melanoma = system: LOX IMVI melanoma
LXFL 529 NSCLC = system: LXFL 529 NSCLC
ACHN renal = system: ACHN renal
SR leukemia = system: SR leukemia
HOP-62 NSCLC = system: HOP-62 NSCLC
UO-31 renal = system: UO-31 renal
SK-MEL-2 melanoma = system: SK-MEL-2 melanoma
DLD-1 colon = system: DLD-1 colon
SNB-19 CNS = system: SNB-19 CNS
IGROV1 ovarian = system: IGROV1 ovarian
MALME-3M melanoma = system: MALME-3M melanoma
HOP-92 NSCLC = system: HOP-92 NSCLC
RPMI-8226 leukemia = system: RPMI-8226 leukemia
SF-295 CNS = system: SF-295 CNS
A549 NSCLC = system: A549 NSCLC
UACC-62 melanoma = system: UACC-62 melanoma
SK-MEL-5 melanoma = system: SK-MEL-5 melanoma
OVCAR-5 ovarian = system: OVCAR-5 ovarian
SN12C renal = system: SN12C renal
M14 melanoma = system: M14 melanoma
CCRF-CEM leukemia = system: CCRF-CEM leukemia
MOLT-4 leukemia = system: MOLT-4 leukemia
SW-620 colon = system: SW-620 colon
KM12 colon = system: KM12 colon
HOP-18 NSCLC = system: HOP-18 NSCLC
TK-10 renal = system: TK-10 renal
UACC-257 melanoma = system: UACC-257 melanoma
K-562 leukemia = system: K-562 leukemia
COLO 205 colon = system: COLO 205 colon
SK-MEL-28 melanoma = system: SK-MEL-28 melanoma
DMS 114 small cell lung = system: DMS 114 small cell lung
NCI-H23 lung = system: NCI-H23 lung
SNB-75 CNS = system: SNB-75 CNS
HCT-116 colon = system: HCT-116 colon
NCI-H522 lung = system: NCI-H522 lung
A498 renal = system: A498 renal
OVCAR-3 ovarian = system: OVCAR-3 ovarian
SF-539 CNS = system: SF-539 CNS
SK-OV-3 ovarian = system: SK-OV-3 ovarian
DMS 273 small cell lung = system: DMS 273 small cell lung
HCT-15 colon = system: HCT-15 colon
U251 CNS = system: U251 CNS
SF-268 CNS = system: SF-268 CNS
EKVX NSCLC = system: EKVX NSCLC
CAKI-1 renal = system: CAKI-1 renal
NCI-H460 lung = system: NCI-H460 lung
M19-MEL melanoma = system: M19-MEL melanoma
NCI-H226 lung = system: NCI-H226 lung
HL-60(TB) leukemia = system: HL-60(TB) leukemia
786-0 renal = system: 786-0 renal
OVCAR-8 ovarian = system: OVCAR-8 ovarian
HCC-2998 colon = system: HCC-2998 colon
RXF 393 renal = system: RXF 393 renal

With `O=C1[C@H]2ON(c3ccccc3)C(c3ccccc3Cl)[C@H]2C(=O)N1c1ccc(Cc2ccc(N3C(=O)[C@@H]4ON(c5ccccc5)C(c5ccccc5Cl)[C@@H]4C3=O)cc2)cc1` (stereo not given in full) the TGI (KM20L2 colon) was > 100 µM, the TGI (HT29 colon) was > 100 µM and the TGI (OVCAR-4 ovarian) was > 100 µM. The TGI (SNB-78 CNS) was > 100 µM, the TGI (LOX IMVI melanoma) was > 100 µM and the TGI (LXFL 529 NSCLC) was > 100 µM. For the same compound, the TGI (ACHN renal) was > 100 µM, the TGI (SR leukemia) was > 100 µM and the TGI (HOP-62 NSCLC) was > 100 µM. For the same compound, the TGI (UO-31 renal) was > 100 µM, the TGI (SK-MEL-2 melanoma) was > 100 µM and the TGI (DLD-1 colon) was > 100 µM. The TGI (SNB-19 CNS) was > 100 µM, the TGI (IGROV1 ovarian) was > 100 µM and the TGI (MALME-3M melanoma) was > 100 µM. The TGI (HOP-92 NSCLC) was > 100 µM, the TGI (RPMI-8226 leukemia) was > 100 µM and the TGI (SF-295 CNS) was > 100 µM. The TGI (A549 NSCLC) was > 100 µM, the TGI (UACC-62 melanoma) was > 100 µM and the TGI (SK-MEL-5 melanoma) was > 100 µM. For the same compound, the TGI (OVCAR-5 ovarian) was > 100 µM, the TGI (SN12C renal) was > 100 µM and the TGI (M14 melanoma) was 73.5 µM. For the same compound, the TGI (CCRF-CEM leukemia) was > 100 µM, the TGI (MOLT-4 leukemia) was > 100 µM and the TGI (SW-620 colon) was > 100 µM. For the same compound, the TGI (KM12 colon) was > 100 µM, the TGI (HOP-18 NSCLC) was > 100 µM and the TGI (TK-10 renal) was > 100 µM. The TGI (UACC-257 melanoma) was > 100 µM, the TGI (K-562 leukemia) was > 100 µM and the TGI (COLO 205 colon) was > 100 µM. The TGI (SK-MEL-28 melanoma) was > 100 µM, the TGI (DMS 114 small cell lung) was > 100 µM and the TGI (NCI-H23 lung) was > 100 µM. For the same compound, the TGI (SNB-75 CNS) was > 100 µM, the TGI (HCT-116 colon) was > 100 µM and the TGI (NCI-H522 lung) was > 100 µM. For the same compound, the TGI (A498 renal) was > 100 µM, the TGI (OVCAR-3 ovarian) was > 100 µM and the TGI (SF-539 CNS) was > 100 µM. For the same compound, the TGI (SK-OV-3 ovarian) was > 100 µM, the TGI (DMS 273 small cell lung) was > 100 µM and the TGI (HCT-15 colon) was > 100 µM. For the same compound, the TGI (U251 CNS) was > 100 µM, the TGI (SF-268 CNS) was > 100 µM and the TGI (EKVX NSCLC) was > 100 µM. The TGI (CAKI-1 renal) was > 100 µM, the TGI (NCI-H460 lung) was > 100 µM and the TGI (M19-MEL melanoma) was > 100 µM. For the same compound, the TGI (NCI-H226 lung) was > 100 µM, the TGI (HL-60(TB) leukemia) was > 100 µM and the TGI (786-0 renal) was > 100 µM. For the same compound, the TGI (OVCAR-8 ovarian) was > 100 µM and the TGI (HCC-2998 colon) was > 100 µM.

With `COC(=O)C(=O)C1(CCC(C)=O)c2ccccc2-c2c(C)ccc(C)c21` (stereo not given) the TGI (KM20L2 colon) was > 100 µM, the TGI (HT29 colon) was > 100 µM and the TGI (OVCAR-4 ovarian) was > 100 µM. The TGI (SNB-78 CNS) was 78.5 µM, the TGI (LOX IMVI melanoma) was > 100 µM and the TGI (LXFL 529 NSCLC) was > 100 µM. The TGI (ACHN renal) was > 100 µM, the TGI (SR leukemia) was 61.5 µM and the TGI (HOP-62 NSCLC) was > 100 µM. The TGI (UO-31 renal) was > 100 µM, the TGI (SK-MEL-2 melanoma) was > 100 µM and the TGI (DLD-1 colon) was > 100 µM. The TGI (SNB-19 CNS) was > 100 µM, the TGI (IGROV1 ovarian) was > 100 µM and the TGI (MALME-3M melanoma) was > 100 µM. The TGI (RPMI-8226 leukemia) was 78.6 µM, the TGI (SF-295 CNS) was > 100 µM and the TGI (A549 NSCLC) was > 100 µM. For the same compound, the TGI (UACC-62 melanoma) was > 100 µM, the TGI (SK-MEL-5 melanoma) was 65.2 µM and the TGI (OVCAR-5 ovarian) was > 100 µM. For the same compound, the TGI (SN12C renal) was > 100 µM, the TGI (M14 melanoma) was > 100 µM and the TGI (CCRF-CEM leukemia) was > 100 µM. For the same compound, the TGI (MOLT-4 leukemia) was 66 µM, the TGI (SW-620 colon) was > 100 µM and the TGI (KM12 colon) was > 100 µM. For the same compound, the TGI (HOP-18 NSCLC) was > 100 µM, the TGI (TK-10 renal) was > 100 µM and the TGI (UACC-257 melanoma) was 91.8 µM. For the same compound, the TGI (K-562 leukemia) was > 100 µM, the TGI (COLO 205 colon) was > 100 µM and the TGI (SK-MEL-28 melanoma) was > 100 µM. The TGI (DMS 114 small cell lung) was > 100 µM, the TGI (RXF 393 renal) was 76.1 µM and the TGI (NCI-H23 lung) was > 100 µM. The TGI (SNB-75 CNS) was > 100 µM, the TGI (HCT-116 colon) was > 100 µM and the TGI (NCI-H522 lung) was 94.1 µM. The TGI (A498 renal) was > 100 µM, the TGI (OVCAR-3 ovarian) was > 100 µM and the TGI (SK-OV-3 ovarian) was > 100 µM. The TGI (DMS 273 small cell lung) was > 100 µM, the TGI (HCT-15 colon) was > 100 µM and the TGI (U251 CNS) was > 100 µM. The TGI (SF-268 CNS) was > 100 µM, the TGI (EKVX NSCLC) was > 100 µM and the TGI (CAKI-1 renal) was > 100 µM. The TGI (NCI-H460 lung) was > 100 µM, the TGI (M19-MEL melanoma) was > 100 µM and the TGI (NCI-H226 lung) was > 100 µM. For the same compound, the TGI (HL-60(TB) leukemia) was 32.1 µM, the TGI (786-0 renal) was > 100 µM and the TGI (OVCAR-8 ovarian) was > 100 µM. The TGI (HCC-2998 colon) was > 100 µM.

With `O=C(COc1ccc2c(=O)cc(-c3ccccc3)oc2c1)N1CCN(c2ccccc2)CC1` the TGI (KM20L2 colon) was > 100 µM, the TGI (SNB-78 CNS) was > 100 µM and the TGI (LOX IMVI melanoma) was > 100 µM. The TGI (LXFL 529 NSCLC) was > 100 µM, the TGI (ACHN renal) was > 100 µM and the TGI (HOP-62 NSCLC) was > 100 µM. The TGI (UO-31 renal) was > 100 µM, the TGI (SK-MEL-2 melanoma) was 77.8 µM and the TGI (SNB-19 CNS) was > 100 µM. For the same compound, the TGI (IGROV1 ovarian) was > 100 µM, the TGI (MALME-3M melanoma) was > 100 µM and the TGI (RPMI-8226 leukemia) was > 100 µM. The TGI (SF-295 CNS) was > 100 µM, the TGI (A549 NSCLC) was > 100 µM and the TGI (UACC-62 melanoma) was > 100 µM. For the same compound, the TGI (SK-MEL-5 melanoma) was > 100 µM, the TGI (OVCAR-5 ovarian) was > 100 µM and the TGI (SN12C renal) was > 100 µM. For the same compound, the TGI (M14 melanoma) was > 100 µM, the TGI (CCRF-CEM leukemia) was > 100 µM and the TGI (MOLT-4 leukemia) was > 100 µM. For the same compound, the TGI (SW-620 colon) was > 100 µM, the TGI (KM12 colon) was > 100 µM and the TGI (HOP-18 NSCLC) was > 100 µM. The TGI (TK-10 renal) was > 100 µM, the TGI (UACC-257 melanoma) was > 100 µM and the TGI (K-562 leukemia) was > 100 µM. For the same compound, the TGI (COLO 205 colon) was > 100 µM, the TGI (SK-MEL-28 melanoma) was > 100 µM and the TGI (DMS 114 small cell lung) was > 100 µM. The TGI (RXF 393 renal) was > 100 µM, the TGI (NCI-H23 lung) was > 100 µM and the TGI (SNB-75 CNS) was > 100 µM. For the same compound, the TGI (HCT-116 colon) was > 100 µM, the TGI (NCI-H522 lung) was 93.8 µM and the TGI (OVCAR-3 ovarian) was > 100 µM. For the same compound, the TGI (SF-539 CNS) was > 100 µM, the TGI (SK-OV-3 ovarian) was > 100 µM and the TGI (HCT-15 colon) was > 100 µM. For the same compound, the TGI (U251 CNS) was > 100 µM, the TGI (SF-268 CNS) was > 100 µM and the TGI (EKVX NSCLC) was > 100 µM. The TGI (NCI-H460 lung) was > 100 µM, the TGI (M19-MEL melanoma) was > 100 µM and the TGI (NCI-H226 lung) was > 100 µM. For the same compound, the TGI (HL-60(TB) leukemia) was 87.3 µM, the TGI (786-0 renal) was > 100 µM and the TGI (OVCAR-8 ovarian) was > 100 µM. The TGI (HCC-2998 colon) was > 100 µM.
